“And” between values parts separate entries of the source, which are not always exact repeats. Identical values can stand only once.
Assays:
[1] = tested on: acetylated histone 3; experiment: Immunoblot of acetylated histone 3 in PANC-1 xenograft tumors; format: in vivo, human; conditions: FK228 5 mg/kg Q4Dx3; gemcitabine 80 mg/kg Q3Dx4; tumors at study completion; vs controls
Protocol: (§1) Abstract: To examine activity and mechanism of FK228, antitumor efficacy was tested in PANC-1 pancreatic adenocarcinoma model representing transformed Ras, either as a single agent or in combination with gemcitabine. Following PANC-1 study completion, tumor and sera were obtained from: • the vehicle control; • FK228 dosed at 5 mg/kg once every four days for three treatments (Q4Dx3); • Gemcitabine at 80 mg/kg (Q3Dx4); and • the drug combination. Expression of c-Myc, acetylated histones 3 and 4, and p21^waf1 was compared between control and FK228 groups by immunoblotting and was quantified following actin normalization. Serum levels of putative tumor products b-FGF and MMP-2 were quantified by human-specific ELISA. […]
(§2) Tissue Biomarkers: Tumor levels of acetylated histone-4, histone-4, c-Myc, p21waf and β-actin were quantified by immunoblotting as described. […] The chemiluminescence signal was captured by autoradiography, quantified by densitometry and expressed as a ratio of actin in each sample lane. For each biomarker, means and standard errors were calculated in each treatment group. […]
(§3) Expression of c-Myc, acetylated histones 3 and 4, and p21^waf1 was compared between control and FK228 groups by immunoblotting and was quantified following actin normalization. Serum levels of putative tumor products b-FGF and MMP-2 were quantified by human-specific ELISA. […]

[2] = tested on: PANC-1 Human Pancreatic Tumor Xenograft; experiment: PANC-1 xenograft tumor growth inhibition study (Example 3); format: in vivo, mouse xenograft; conditions: for % TGI: PANC-1, Day 25; for activity according to NCI Standards / #PR/CR / FINAL TUMOR VOLUME (DAY 25) MEAN ± SEM / calculated TGI values (discussion) / % TR: PANC-1; for calculated TGI values (discussion): all evaluated doses and schedules
Source text: (§4) (Madison, Wis.). […] Tumor measurements were converted to cubic millimeter tumor volume using the formula^(5): […] Final mean tumor volume ±SEM for each group was reported; animals experiencing partial or complete tumor regressions or animals experiencing technical or drug-related deaths were censored from these calculations. […] TGI values for each treatment group are reported at study completion; these calculations are based on the final study day. […] If partial tumor regression was reported in multiple animals within one group, a mean value was determined. Individual mice lacking palpable tumors were classified as undergoing complete regression (CR). Animals experiencing partial or complete tumor regressions were censored from TGI calculations. However, data from these animals was included in statistical analysis calculations. In addition, weight data from these animals was included in daily and final group calculations. Tumor Necrosis-Degree of tumor necrosis was rated at each tumor measurement using the following arbitrary index: [table]

[3] = tested on: Panc-1 human pancreas tumors; experiment: Panc-1 mouse xenograft tumor growth (Example 1); format: in vivo; conditions: for tumor growth inhibition: Panc-1 xenograft in female nude mice, FK228 IV Q4Dx3, gemcitabine IP Q3Dx4, vs vehicle control
Protocol: In this study, female nude mice were implanted subcutaneously (SC) by trocar with Panc-1 tumor fragments harvested from SC growing tumors in nude mice hosts. […] The day of treatment initiation was specified as Day 1. Vehicle control and FK228 were administered intravenously on a Q4Dx3 schedule (Days 1, 5, and 9). Gemcitabine was administered by an intraperitoneal injection on a Q3Dx4 schedule (Days 1, 4, 7, 10). Tumors were measured by Vernier calipers twice weekly.

[4] = tested on: acetylated histone 4; experiment: Immunoblot of acetylated histone 4 in PANC-1 xenograft tumors; format: in vivo, human; conditions: FK228 5 mg/kg Q4Dx3; gemcitabine 80 mg/kg Q3Dx4; tumors at study completion; vs controls
Protocol: as §1, §2, §3

[5] = tested on: BxPC-3 Human Pancreatic Tumor Xenograft; experiment: BxPC-3 xenograft tumor growth inhibition study (Example 3); format: in vivo, mouse xenograft; conditions: for % TGI: BxPC-3, Day 29; for activity according to NCI Standards / #PR/CR / FINAL TUMOR VOLUME (DAY 29) MEAN ± SEM / calculated TGI values (discussion): BxPC-3; for calculated TGI values (discussion): all evaluated doses and schedules
Source text: as §4

[6] = FK228 2.5 mg/kg IV Q4Dx3, 2.5 mg/kg
[7] = FK228 5 mg/kg IV Q4Dx3, 5 mg/kg

Compound: C/C=C1\NC(=O)[C@H]2CSSCC/C=C/[C@H](CC(=O)N[C@H](C(C)C)C(=O)N2)OC(=O)[C@H](C(C)C)NC1=O [FK228, romidepsin]
- acetylation of histone 3 [1]: not affected
- % TGI ([2]; FK228 2.5 mg/kg IV Q4Dx3): 26%
- % TGI ([2]; FK228 5 mg/kg IV Q4Dx3): 26%
- activity according to NCI Standards ([2]; FK228 2.5 mg/kg IV Q4Dx3): inactive
- #PR/CR [2, 6]: 0/9 and 0/0
- FINAL TUMOR VOLUME (DAY 25) MEAN ± SEM [2, 6]: 1688±290 mm^3
- activity according to NCI Standards ([2]; FK228 5 mg/kg IV Q4Dx3): inactive
- #PR/CR [2, 7]: 0/9 and 0/0
- FINAL TUMOR VOLUME (DAY 25) MEAN ± SEM [2, 7]: 1690±290 mm^3 and 1690 ± 331 mm^3
- calculated TGI values (discussion) [2]: less than 58%
- single agent activity towards tumor model ([2]; ras-transformed PANC-1): some activity
- tumor growth inhibition [3]: 26%
- increase of acetylated histone 4 [4]: over 2 fold
- % TGI ([5]; FK228 2.5 mg/kg IV Q4Dx3): No TGI
- % TGI ([5]; FK228 5 mg/kg IV Q4Dx3): No TGI
- activity according to NCI Standards ([5]; FK228 2.5 mg/kg IV Q4Dx3): inactive
- #PR/CR [5, 6]: 0/9 and 0/0
- FINAL TUMOR VOLUME (DAY 29) MEAN ± SEM [5, 6]: 2440±643 mm^3
- activity according to NCI Standards ([5]; FK228 5 mg/kg IV Q4Dx3): inactive
- #PR/CR [5, 7]: 0/9 and 0/0
- FINAL TUMOR VOLUME (DAY 29) MEAN ± SEM [5, 7]: 2620±238 mm^3
- calculated TGI values (discussion) [5]: No tumor growth inhibition
- single agent activity towards tumor model ([5]; wildtype ras BxPC-3): inactive

Compound: Nc1ccn([C@@H]2O[C@H](CO)[C@@H](O)C2(F)F)c(=O)n1 [Gemcitabine, gemcitabine]
- acetylation of histone 3 [1]: significantly inhibited
- % TGI ([2]; Gemcitabine 40 mg/kg IP Q3Dx4): 31%
- % TGI ([2]; Gemcitabine 80 mg/kg IP Q3Dx4): 51%
- #PR/CR ([2]; Gemcitabine 40 mg/kg IP Q3Dx4): 1/9 and 1/0
- % TR ([2]; Gemcitabine 40 mg/kg IP Q3Dx4): 62%
- FINAL TUMOR VOLUME (DAY 25) MEAN ± SEM ([2]; Gemcitabine 40 mg/kg IP Q3Dx4): 1566±255 mm^3
- activity according to NCI Standards ([2]; Gemcitabine 40 mg/kg IP Q3Dx4): inactive
- % TR ([2]; Gemcitabine 40 mg/kg IP Q3Dx4, listed as gemcitabine): 62%
- #PR/CR ([2]; Gemcitabine 80 mg/kg IP Q3Dx4): 0/9 and 0/0
- FINAL TUMOR VOLUME (DAY 25) MEAN ± SEM ([2]; Gemcitabine 80 mg/kg IP Q3Dx4): 1172±234 mm^3
- activity according to NCI Standards ([2]; Gemcitabine 80 mg/kg IP Q3Dx4): inactive
- calculated TGI values (discussion) [2]: less than 58%
- tumor growth inhibition [3]: 50%
- animals with tumor regression ([3]; Panc-1 xenograft, N=9 mice per group): no regression
- increase of acetylated histone 4 [4]: on the control level
- % TGI ([5]; Gemcitabine 40 mg/kg IP Q3Dx4): 20%
- % TGI ([5]; Gemcitabine 80 mg/kg IP Q3Dx4): 9%
- #PR/CR ([5]; Gemcitabine 40 mg/kg IP Q3Dx4): 0/9 and 0/0
- FINAL TUMOR VOLUME (DAY 29) MEAN ± SEM ([5]; Gemcitabine 40 mg/kg IP Q3Dx4): 1683±426 mm^3
- activity according to NCI Standards ([5]; Gemcitabine 40 mg/kg IP Q3Dx4): inactive
- #PR/CR ([5]; Gemcitabine 80 mg/kg IP Q3Dx4): 0/9 and 0/0
- FINAL TUMOR VOLUME (DAY 29) MEAN ± SEM ([5]; Gemcitabine 80 mg/kg IP Q3Dx4): 1890±237 mm^3
- activity according to NCI Standards ([5]; Gemcitabine 80 mg/kg IP Q3Dx4): inactive
- calculated TGI values (discussion) [5]: less than 58%

Source: patent US20100137239A1, “GEMCITABINE COMBINATION THERAPY” (GLOUCESTER PHARMACEUTICALS, priority 2006, published 2010)
